System: human citrated plasma
Test: aPTT time prolongation in human citrated plasma (Biomatic B10 coagulometer)
Assay type: biochemical
Settings: effective concentration at which the aPTT time is double compared with the control, 37° C.
Experimental: were investigated for their effect on prolonging the aPTT time as follows:
Materials: plasma, from human citrated blood;
PTT reagent, Boehringer Mannheim (524298);
Calcium solution (0.025 mol/L), Behring Werke, Marburg (ORH 056/57),
Diethylbarbiturate acetate buffer, Behring Werke, Marburg (ORWH 60/61); and
Biomatic B10 coagulometer, Desaga, Wiesloch.
The aPTT time was determined using a Biomatic B10 coagulometer made by Messrs. Desaga.
The test substance was placed in the test tubes prescribed by the manufacturer with 0.1 mL of human citrated plasma and 0.1 mL of PTT reagent. The mixture was incubated for three minutes at 37° C. The clotting reaction was started by the addition of 0.1 mL of calcium solution. The time is measured using the apparatus from the addition of the calcium solution up to the clotting of the mixture. Mixtures to which 0.1 mL of DBA buffer had been added were used as the controls.
According to the definition, a dosage-activity curve was used to determine the effective concentration of the substance at which the aPTT time is double compared with the control.

SMILES	aPTT time (ED200 in μM)
Cc1cc(C(=O)C(C)C)c(C)cc1NC(=O)CNc1ccc(C(=N)N)cc1 [B, 4-[N-(2,5-dimethyl-4-isopropylcarbonylphenylaminocarbonylmethyl)amino]benzamidine]	0.67 µM
Cc1cc(C(=O)N2CCCC2C)c(C)cc1NC(=O)CNc1ccc(C(=N)N)cc1 (centres unmarked) [A, 4-{N-[2,5-dimethyl-4-(2-methylpyrrolidinocarbonyl)phenylaminocarbonylmethyl]-amino}benzamidine]	0.65 µM
